Experimental data reported in paper PMC8909036 (Cells, 2022).
pIC50: −log10 of the molar value.

Key:
ΔN-HAB1 = biological target: T1, ΔN-HAB1 (Arabidopsis thaliana, UniProt Q9CAJ0); experiment: phosphatase turnover, […] nm, […] min; type: biochemical; conditions: 25 mM pNPP, 2 mM MnCl2, 25 mM Tris HCl pH 7.5
T1 sequence (Q9CAJ0 172-511 limits assumed): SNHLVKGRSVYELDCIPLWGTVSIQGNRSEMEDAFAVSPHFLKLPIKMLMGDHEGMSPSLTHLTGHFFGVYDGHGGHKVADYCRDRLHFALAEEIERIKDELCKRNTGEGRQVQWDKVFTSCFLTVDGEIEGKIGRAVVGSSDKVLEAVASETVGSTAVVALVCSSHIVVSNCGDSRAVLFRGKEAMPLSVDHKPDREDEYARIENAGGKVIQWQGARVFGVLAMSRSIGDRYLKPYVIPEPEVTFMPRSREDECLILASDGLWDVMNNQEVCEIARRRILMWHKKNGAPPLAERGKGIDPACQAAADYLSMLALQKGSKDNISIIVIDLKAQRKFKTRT

NbPYL1b = biological target: T2, NbPYL1b (Nicotiana benthamiana, UniProt Z9Z2X8O5T5); experiment: ligand-dependent inhibition of PP2C HAB1 by receptor, pNPP, […] nm; type: biochemical; conditions: 0.5 μM ΔN-HAB1, 1 or 2 μM NbPYL1b, 25 mM pNPP, 2 mM MnCl2, 25 mM Tris HCl pH 7.5; agonist, IC50 read on HAB1 activity
T2 construct: full ORF amplified from Nb genomic DNA (CDS 678 nt, 225 residues by count) in pETM11, His-tagged, E. coli BL21(DE3), Ni-NTA; dimer in gel filtration (apo); assayed with N-terminally truncated HAB1 (ΔN-HAB1); with Protein phosphatase 2C 16
T2 sequence (Z9Z2X8O5T5 1-225): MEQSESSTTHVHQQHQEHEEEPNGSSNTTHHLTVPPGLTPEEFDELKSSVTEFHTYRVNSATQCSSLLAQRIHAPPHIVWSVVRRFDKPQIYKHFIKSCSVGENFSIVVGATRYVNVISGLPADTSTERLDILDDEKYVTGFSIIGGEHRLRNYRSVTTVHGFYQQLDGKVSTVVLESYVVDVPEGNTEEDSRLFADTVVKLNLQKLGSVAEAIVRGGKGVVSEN
T2 sequence (Q9CAJ0 172-511 partner limits assumed): T1 sequence (Q9CAJ0 172-511 limits assumed)

| pIC50 (NbPYL1b) | Compound | phosphatase turnover, 405 nm, 30 min (ΔN-HAB1) |
| --- | --- | --- |
|  | O=[N+]([O-])c1ccc(OP(=O)(O)O)cc1 [pNPP] | Phosphatase activity was measured using p-nitrophenyl phosphate (pNPP) as a substrate |
| 6.90 | Cc1ccc(CS(=O)(=O)Nc2ccc(C#N)c(C3CC3)c2)cc1 [CB] |  |
